From US8324232B2, “4-pyrimidinesulfamide derivative” (Actelion Pharmaceuticals Ltd., priority 2007, dated 2012)

Key:
[1] = target: T1, ETA receptors (Rattus norvegicus, UniProt P26684); experiment: Inhibition of endothelin-1-induced contraction on isolated rat aortic rings
T1 construct: The thoracic aorta or trachea were excised, dissected and cut in 3-5 mm rings; from tissue; host or cells: thoracic aorta rings of adult Wistar rats, endothelium removed
T1 sequence (P26684 21-426): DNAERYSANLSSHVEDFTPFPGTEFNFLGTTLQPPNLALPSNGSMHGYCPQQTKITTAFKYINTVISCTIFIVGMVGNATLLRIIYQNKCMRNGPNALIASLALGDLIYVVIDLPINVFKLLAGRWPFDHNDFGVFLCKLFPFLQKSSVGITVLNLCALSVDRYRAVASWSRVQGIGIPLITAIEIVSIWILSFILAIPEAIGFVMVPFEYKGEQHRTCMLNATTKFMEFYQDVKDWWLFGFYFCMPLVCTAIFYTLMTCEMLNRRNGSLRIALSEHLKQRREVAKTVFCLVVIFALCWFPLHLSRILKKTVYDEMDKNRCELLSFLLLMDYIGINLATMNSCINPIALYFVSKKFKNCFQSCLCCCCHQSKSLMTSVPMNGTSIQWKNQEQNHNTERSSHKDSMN
Method: 2) Inhibition of Endothelin-Induced Contractions on Isolated Rat Aortic Rings (ETA Receptors) and Rat Tracheal Rings (ETB Receptors)
The functional inhibitory potency of the endothelin antagonists was assessed by their inhibition of the contraction induced by endothelin-1 on rat aortic rings (ETA receptors) and of the contraction induced by sarafotoxin S6c on rat tracheal rings (ETB receptors). Adult Wistar rats were anesthetized and exsanguinated. The thoracic aorta or trachea were excised, dissected and cut in 3-5 mm rings. The endothelium/epithelium was removed by gentle rubbing of the intimal surface. Each ring was suspended in a 10 mL isolated organ bath filled with Krebs-Henseleit solution (in mM; NaCl 115, KCl 4.7, MgSO4 1.2, KH2PO4 1.5, NaHCO3 25, CaCl2 2.5, glucose 10) kept at 37° C. and gassed with 95% O2 and 5% CO2. The rings were connected to force transducers and isometric tension was recorded (EMKA Technologies SA, Paris, France). The rings were stretched to a resting tension of 3 g (aorta) or 2 g (trachea). […] The functional inhibitory potency of the test compound was assessed by calculating the concentration ratio, i.e. the shift to the right of the EC50 induced by different concentrations of test compound. […]

[2] = target: T2, human recombinant ETA receptors (Homo sapiens, UniProt P25101); experiment: Inhibition of endothelin binding to membranes from CHO cells carrying human ETA receptors
T2 construct: expressed in transfected cells; host or cells: CHO cells (microsomal membranes)
T2 sequence (P25101 21-427): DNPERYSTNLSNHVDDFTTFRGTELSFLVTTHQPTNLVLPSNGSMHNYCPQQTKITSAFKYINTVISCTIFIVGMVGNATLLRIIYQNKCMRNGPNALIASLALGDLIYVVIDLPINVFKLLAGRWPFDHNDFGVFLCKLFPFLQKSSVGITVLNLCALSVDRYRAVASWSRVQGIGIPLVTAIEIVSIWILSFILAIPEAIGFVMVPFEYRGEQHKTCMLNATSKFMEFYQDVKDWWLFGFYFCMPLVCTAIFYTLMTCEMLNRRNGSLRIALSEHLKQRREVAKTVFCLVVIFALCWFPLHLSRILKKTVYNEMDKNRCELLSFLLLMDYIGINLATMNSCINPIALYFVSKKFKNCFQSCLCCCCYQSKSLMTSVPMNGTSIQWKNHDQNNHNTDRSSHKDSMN
Method: 1) Inhibition of Endothelin Binding to Membranes from CHO Cells Carrying Human ET Receptors
For competition binding studies, membranes of CHO cells expressing human recombinant ETA or ETB receptors were used.
All the test compounds were dissolved, diluted and added in DMSO.

[3] = Pharmacokinetics in the rat after single-dose oral administration; format: in vivo; conditions: male Wistar rats, plasma; for half-life: oral gavage 10 mg/kg; for clearance: oral, 10 mg/kg
Method: Pharmacokinetics in the Rat After Single-Dose Oral Administration
Male Wistar rats with a body weight of 200-250 g were used for pharmacokinetic experiments after an acclimatization period of at least 7 days. All animals were housed under conditions in accordance with the NIH guidelines. Two days prior to the experiment, rats were anesthetized with a mixture of ketamin (90 mg/kg) and xylazine 2% (10 mg/kg) i.p. A catheter was implanted under aseptic conditions into the jugular vein to allow for multiple blood sampling. After recovery from general anesthesia, animals were housed individually under standard laboratory conditions in Makrolon type-3 cages with wire mesh tops and standardized softwood bedding. Animals had free access to water and food during the recovery period and the entire duration of the experiment.
Pharmacokinetic experiments were performed in Wistar rats (m=2-3) after jugular vein cannulation to allow for serial blood sampling. Test compounds were administered orally by gavage at doses of 10 mg/kg. Blood was then sampled at pre-defined time points over a period of 24 h and plasma prepared by centrifugation. Drug concentrations in plasma were quantified using liquid chromatography coupled to mass spectrometry (limit of quantification: 4.6 ng/mL). Pharmacokinetic evaluation was performed using non-compartmental analysis.

| SMILES | Kb [1] [nM] | IC50 [2] [nM] | half-life [3] [h] | clearance [3] [mL/min/kg] |
| --- | --- | --- | --- | --- |
| NS(=O)(=O)Nc1ncnc(OCCOc2ncc(Br)cn2)c1-c1ccc(Br)cc1 [Compound of formula I, {5-(4-bromo-phenyl)-6-[2-(5-bromo-pyrimidin-2-yloxy)-ethoxy]-pyrimidin-4-yl}-sulfamide] | 200 | 3.7 | 8.7 | 1.3 |
| CCCNS(=O)(=O)Nc1ncnc(OCCOc2ncc(Br)cn2)c1-c1ccc(Br)cc1 [Reference Compound, Propylsulfamic acid [5(4 bromo-phenyl)-6-[2-(5-bromo-pyrimidin-2-yloxy)-ethoxy]-pyrimidin-4-yl]-amide, reference compound] |  |  | 2.8 to 4.2 | 5.7 to 10 |
